Experimental data from patent US10040815B2, “3-substituted 5-amino-6H-thiazolo[4,5-d]pyrimidine-2,7-dione compounds for the treatment and prophylaxis of virus infection” (Hoffmann-La Roche Inc., priority 2014, dated 2018).
Like-named read-outs stand apart in the source and are kept apart here.

Key:
human hepatocytes = assay: Metabolic conversion of prodrugs to active forms in human hepatocytes (LC-MS/MS); assay type: in vitro ADME; details: for metabolic conversion of prodrug to active metabolite in human hepatocytes: active metabolites Example 1-A, Example 14-A and penciclovir, respectively
From the text: Metabolism of Prodrugs: Formula (II) or Formula (IIa) A study was undertaken to evaluate the metabolic conversion of prodrugs, formula (II) or formula (IIa), to compounds of formula (I) or formula (Ia) of the present invention. The produgs, formula (II) or formula (IIa), can be metabolized to the active compound of formula (I) or formula (Ia) and other compounds of the invention in the body if they are served as prodrugs. Hepatocytes are often used to assess the degree of metabolic conversion of prodrugs in the body of animal or human. A study was undertaken to evaluate the metabolic conversion of prodrugs, Example 2-A, Example 3-A, Example 4-A, Example 16-A and Example 17-A, to the corresponding active forms, Example 1-A and Example 14-A, in the presence of human hepatocytes. The formation of active forms, Example 1-A and Example 14-A, were monitored in the study. For comparison, the metabolic conversion of famciclovir to penciclovir was also assessed. Cryopreserved hepatocytes plating medium (Cat.#: PY-HMD-01) was purchased from RILD Research Institute for Liver Diseases (Shanghai) Co. Ltd. Cryopreserved human hepatocyte (Cat.#: X008005, Lot#:VRR) was purchased from In Vitro Technologies (Baltimore, Md.). The stock hepatocyte suspension was prepared from cryopreserved hepatocytes in plating medium at the concentration of 1.8×10^6 cells/mL. […] Reaction suspensions were prepared in 24-well cell culture plate by mixing 200 μL of hepatocytes suspension (Cyno or human) and 200 μL of working solution. The final incubation contained 0.9×10^6 cells/mL and 50 μM compound. The above mixtures were incubated at 37° C. in a humidified 5% CO2 atmosphere, with a 150 rpm shaking. After 180 min of incubation, 200 μL of the incubation mixture was transferred to 1.5 mL tube and quenched with 400 μL stop solution (ice-cold acetonitrile with 0.2 μM Tolbutamide as internal standard). The samples were centrifuged at 12000 rpm for 10 minutes and the resultant supernatants were subjected to LC-MS/MS analysis. The calibration curves were prepared in the following way. To a 200 μL of cell suspension (cell density of 1.8 million cells/mL), 198 μL of hepatocyte plating medium and 2 μL of the appropriate concentration of the compound in DMSO were added. Samples were mixed thoroughly and 200 μL of the mixture was transferred to 400 uL of the stop solution (see above). […] The compounds were quantified on an API5500 […] instrument in the ESI-Positive MRM mode.

HBV (hepatitis B virus) = assay: In vivo antiviral efficacy in AAV-HBV mouse model; details: QOD, mouse serum
Description: The treatment started after the mice were infected with AAV-HBV for 29 days. They were given the treatment for 42 days, and HBV DNA and HBsAg in mouse serum were measured on the indicated time points by RT-qPCR and HBsAg CLIA respectively. The results were presented as mean±SEM. LLQ: lower limit of quantification.
This mouse model for HBV infection was generated by injecting C57BL/6 mice with a recombinant adeno-associated virus (AAV) carrying a replicable HBV (hepatitis B virus) genome (AAV-HBV).
For each study, ten 4-5 week old male C57BL/6 mice, specific pathogen free, were available from Shanghai Laboratory Animal Center of Chinese Academy of Sciences (SLAC) and housed in an animal care facility in individually ventilated cages under controlled temperature and light conditions following the Institutional Animal Care guidelines. AAV-HBV virus stock was purchased from Beijing FivePlus Molecular Medicine Institute (Beijing, China). C57BL/6 mice were injected with 200 μL of recombinant virus in saline buffer through tail vein injection. The mice were bled on day 14 post injection to monitor the levels of HBsAg, HBeAg, and HBV genomic DNA in serum, and randomly grouped based on these HBV biomarker levels.
All the mice were treated for a total of 6 weeks. Serum samples were collected twice a week to monitor the levels of HBV biomarkers. Serum HBsAg was measured using CLIA kits (Autobio Diagnostics Co., Ltd, Zhengzhou, China) according to the manufacturer's instructions. The lower limit of quantification (LLQ) for HBsAg was 0.1 ng/mL. Serum dilution of 500-fold (for HBsAg) was used to obtain values within the linear range of the standard curve. Serum HBV DNA was extracted using a MagNA Pure 96 DNA and Viral NA Small Volume Kit (Roche) following the manufacturer's instructions. The DNA samples were analyzed by real-time quantitative PCR (qPCR) using a HBV-specific primer and probe set for specific amplification and detection of a 128 bp HBV genome region from the nucleotide 2969 to 3096. The LLQ for HBV DNA was 20 copies/μL.

human TLR7 = human TLR7 (Homo sapiens (Human), UniProt Q9NYK1); assay: HEK293-Blue-hTLR-7 cells assay (SEAP reporter, NF-κB activation); assay type: cell-based
Chain of human TLR7 (Q9NYK1 27-1049): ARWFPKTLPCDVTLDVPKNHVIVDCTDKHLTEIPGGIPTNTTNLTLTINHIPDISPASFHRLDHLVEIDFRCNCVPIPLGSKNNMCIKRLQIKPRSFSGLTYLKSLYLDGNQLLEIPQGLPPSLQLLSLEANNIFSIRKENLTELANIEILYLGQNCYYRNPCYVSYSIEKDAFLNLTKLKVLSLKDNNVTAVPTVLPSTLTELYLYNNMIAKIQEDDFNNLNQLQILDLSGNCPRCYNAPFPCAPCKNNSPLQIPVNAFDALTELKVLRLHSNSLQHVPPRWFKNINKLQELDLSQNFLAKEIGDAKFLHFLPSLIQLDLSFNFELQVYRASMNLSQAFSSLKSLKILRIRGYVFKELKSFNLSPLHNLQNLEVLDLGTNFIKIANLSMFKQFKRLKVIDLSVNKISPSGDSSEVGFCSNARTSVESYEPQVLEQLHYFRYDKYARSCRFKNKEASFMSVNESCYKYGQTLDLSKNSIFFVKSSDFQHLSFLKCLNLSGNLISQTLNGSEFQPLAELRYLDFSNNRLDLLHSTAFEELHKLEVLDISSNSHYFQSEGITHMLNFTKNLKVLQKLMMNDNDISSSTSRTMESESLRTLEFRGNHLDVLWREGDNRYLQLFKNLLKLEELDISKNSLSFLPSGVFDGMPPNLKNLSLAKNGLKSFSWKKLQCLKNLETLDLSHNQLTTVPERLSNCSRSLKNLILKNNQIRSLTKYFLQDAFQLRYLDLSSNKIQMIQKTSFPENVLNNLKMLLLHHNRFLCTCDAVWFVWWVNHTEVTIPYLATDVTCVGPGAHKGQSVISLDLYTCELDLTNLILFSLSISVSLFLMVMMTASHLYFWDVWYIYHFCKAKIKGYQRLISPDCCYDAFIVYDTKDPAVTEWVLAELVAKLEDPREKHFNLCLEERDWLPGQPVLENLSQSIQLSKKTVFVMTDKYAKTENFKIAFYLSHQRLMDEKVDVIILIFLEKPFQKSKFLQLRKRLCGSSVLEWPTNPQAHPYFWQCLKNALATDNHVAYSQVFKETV
From the text: HEK293-Blue-hTLR-7 Cells Assay: A stable HEK293-Blue-hTLR-7 cell line was purchased from InvivoGen (Cat.#: hkb-htlr7, San Diego, Calif., USA). These cells were designed for studying the stimulation of human TLR7 by monitoring the activation of NF-κB. A SEAP (secreted embryonic alkaline phosphatase) reporter gene was placed under the control of the IFN-β[…] minimal promoter fused to five NF-κB and AP-1-binding sites. The SEAP was induced by activating NF-κB and AP-1 via stimulating HEK-Blue hTLR7 cells with TLR7 ligands. Therefore the reporter expression was regulated by the NF-κB promoter upon stimulation of human TLR7 for 20 hours. The cell culture supernatant SEAP reporter activity was determined using QUANTI-Blue™ kit (Cat.#: rep-qb1, Invivogen, San Diego, Calif., USA) at a wavelength of 640 nm, a detection medium that turns purple or blue in the presence of alkaline phosphatase. […] Then 20 μL of the supernatant from each well was incubated with 180 μL Quanti-blue substrate solution at 37° C. for 2 hours and the absorbance was read at 620˜655 nm using a spectrophotometer. […] Hiroaki Hemmi et al, Nature Immunology 3, 196-200 (2002).

[1] = 100 mg/kg PO, after the 6-week treatment
[2] = 300 mg/kg PO, at the end of the treatment (6 weeks)
[3] = HEK293-Blue-hTLR-7 cells, 20 hours incubation, SEAP reporter, read-out: HEK293- hTLR-7 EC50

SMILES | EC50 (human TLR7; [3]) | other results
CCC(O)[C@@H]1C[C@@H](O)[C@H](n2c(=O)sc3cnc(N)nc32)O1 (single isomer, unassigned) [Example 2-A] |  | metabolic conversion of prodrug to active metabolite in human hepatocytes (human hepatocytes): metabolized to yield the corresponding active metabolites
CCC(O)[C@@H]1C[C@@H](OC(C)=O)[C@H](n2c(=O)sc3cnc(N)nc32)O1 (single isomer, unassigned) [Example 3-A] |  | metabolic conversion of prodrug to active metabolite in human hepatocytes (human hepatocytes): metabolized to yield the corresponding active metabolites
CCC(OC(C)=O)[C@@H]1C[C@@H](O)[C@H](n2c(=O)sc3cnc(N)nc32)O1 (single isomer, unassigned) [Example 4-A] |  | reduction in HBV DNA (HBV (hepatitis B virus); [1]): more than 2 log; reduction in HBsAg (HBV (hepatitis B virus); [1]): 1.5 log; reduction in HBV DNA (HBV (hepatitis B virus); [2]): more than 3 log; reduction in HBsAg (HBV (hepatitis B virus); [2]): 2.7 log; metabolic conversion of prodrug to active metabolite in human hepatocytes (human hepatocytes): metabolized to yield the corresponding active metabolites
C=CCC(O)[C@@H]1C[C@@H](O)[C@H](n2c(=O)sc3c(=O)[nH]c(N)nc32)O1 (single isomer, unassigned) [Example 8-A] | 87 µM | 
CCCC(O)[C@@H]1C[C@@H](O)[C@H](n2c(=O)sc3c(=O)[nH]c(N)nc32)O1 (single isomer, unassigned) [Example 10-A] | 63 µM | 
Nc1nc2c(sc(=O)n2[C@@H]2O[C@H](C(O)C3CC3)C[C@H]2O)c(=O)[nH]1 (single isomer, unassigned) [Example 14-A] | 48 µM | 
CC(=O)OC(C1CC1)[C@@H]1C[C@@H](O)[C@H](n2c(=O)sc3cnc(N)nc32)O1 (single isomer, unassigned) [Example 16-A] |  | metabolic conversion of prodrug to active metabolite in human hepatocytes (human hepatocytes): metabolized to yield the corresponding active metabolites
C#CC(O)[C@@H]1C[C@@H](O)[C@H](n2c(=O)sc3c(=O)[nH]c(N)nc32)O1 (single isomer, unassigned) [Example 18-A] | 12 µM | 
CC#CC(O)[C@@H]1C[C@@H](O)[C@H](n2c(=O)sc3c(=O)[nH]c(N)nc32)O1 (single isomer, unassigned) [Example 19-A] | 38 µM | 
CCC(O)[C@@H]1C[C@@H](SC)[C@H](n2c(=O)sc3c(=O)[nH]c(N)nc32)O1 (single isomer, unassigned) [Example 22-A] | 14 µM | 
CCC(O)[C@@H]1C[C@@H](N=[N+]=[N-])[C@H](n2c(=O)sc3c(=O)[nH]c(N)nc32)O1 (single isomer, unassigned) [Example 23-A] | 26 µM | 
C=CC(O)[C@@H]1C[C@@H](O)[C@H](n2c(=O)sc3c(=O)[nH]c(N)nc32)O1 (single isomer, unassigned) [Example 24-A] | 70 µM | 
C=CC[C@@H]1C[C@@H](C(O)CC)O[C@H]1n1c(=O)sc2c(=O)[nH]c(N)nc21 (single isomer, unassigned) [Example 26-A] | 12 µM | 
Nc1nc2c(sc(=O)n2[C@@H]2O[C@H](CO)C[C@H]2O)c(=O)[nH]1 [ANA-122, reference compound] | 446 µM | 
Nc1ncc2sc(=O)n([C@@H]3O[C@H](C(O)C4CC4)C[C@H]3O)c2n1 (stereo partly drawn) [Example 17-A, 5-Amino-3-[(2R,3R,5S)-5-[cyclopropyl(hydroxy)methyl]-3-hydroxy-tetrahydrofuran-2-yl]thiazolo[4,5-d]pyrimidin-2-one] |  | Product Concentration in human hepatocytes (metabolized product formed from prodrug) (human hepatocytes; after 3-hour incubation of 50 μM of prodrugs, product 1-A, 14-A or Penciclovir): 7.3 µM; metabolic conversion of prodrug to active metabolite in human hepatocytes (human hepatocytes): metabolized to yield the corresponding active metabolites
C=CC[C@@H]1C[C@@H](C(O)CC)O[C@H]1n1c(=O)sc2c(=O)[nH]c(N)nc21 (stereo partly drawn) [Example 26, 3-[(2R,3R,5S)-3-allyl-5-(1-hydroxypropyl)tetrahydrofuran-2-yl]-5-amino-6H-thiazolo[4,5-d]pyrimidine-2,7-dione] | 29 µM | 
CCC[C@@H]1C[C@@H]([C@@H](O)CC)O[C@H]1n1c(=O)sc2c(=O)[nH]c(N)nc21 [Example 27-A, 5-amino-3-[(2R,3R,5S)-5-[(1S)-1-hydroxypropyl]-3-propyl-tetrahydrofuran-2-yl]-6H-thiazolo[4,5-d]pyrimidine-2,7-dione] | 15 µM | 
CC[C@H](O)[C@@H]1C[C@@H](C)[C@H](n2c(=O)sc3c(=O)[nH]c(N)nc32)O1 [Example 28, 5-amino-3-[(2R,3R,5S)-5-[(1S)-1-hydroxypropyl]-3-methyl-tetrahydrofuran-2-yl]-6H-thiazolo[4,5-d]pyrimidine-2,7-dione] |  | EC50 (human TLR7): 10 µM
CC#C[C@H](O)[C@@H]1C[C@@H](C)[C@H](n2c(=O)sc3c(=O)[nH]c(N)nc32)O1 [Example 29, 5-Amino-3-[(2R,3R,5S)-5-[(1S)-1-hydroxybut-2-ynyl]-3-methyl-tetrahydrofuran-2-yl]-6H-thiazolo[4,5-d]pyrimidine-2,7-dione] | 29 µM | 
C[C@@H]1C[C@@H]([C@@H](O)C2CC2)O[C@H]1n1c(=O)sc2c(=O)[nH]c(N)nc21 [Example 30, 5-Amino-3-[(2R,3R,5S)-5-[(S)-cyclopropyl(hydroxy)methyl]-3-methyl-tetrahydrofuran-2-yl]-6H-thiazolo[4,5-d]pyrimidine-2,7-dione] | 15 µM | 
C[C@H](O)[C@@H]1C[C@@H](C)[C@H](n2c(=O)sc3c(=O)[nH]c(N)nc32)O1 [Example 31, 5-Amino-3-[(2R,3R,5S)-5-[(1S)-1-hydroxyethyl]-3-methyl-tetrahydrofuran-2-yl]-6H-thiazolo[4,5-d]pyrimidine-2,7-dione] | 70 µM | 
Nc1nc2c(sc(=O)n2[C@@H]2O[C@H](CO)C[C@H]2N2CCCC2)c(=O)[nH]1 [Example 32, 5-Amino-3-[(2R,3R,5S)-5-(hydroxymethyl)-3-pyrrolidin-1-yl-tetrahydrofuran-2-yl]-6H-thiazolo[4,5-d]pyrimidine-2,7-dione] | 67 µM | 
CS[C@@H]1C[C@@H](CO)O[C@H]1n1c(=O)sc2c(=O)[nH]c(N)nc21 [Example 39, 5-Amino-3-[(2R,3R,5S)-5-(hydroxymethyl)-3-methylsulfanyl-tetrahydrofuran-2-yl]-6H-thiazolo[4,5-d]pyrimidine-2,7-dione] | 62 µM | 
CC[C@H](OC(=O)C(C)C)[C@@H]1C[C@@H](O)[C@H](n2c(=O)sc3c(=O)[nH]c(N)nc32)O1 [Example 42, [(1S)-1-[(2S,4R,5R)-5-(5-Amino-2,7-dioxo-6H-thiazolo[4,5-d]pyrimidin-3-yl)-4-hydroxy-tetrahydrofuran-2-yl]propyl] 2-methylpropanoate] | 51 µM | 
CC(=O)OCC(CCn1cnc2cnc(N)nc21)COC(C)=O [Famciclovir, famciclovir, reference compound] |  | metabolic conversion of prodrug to active metabolite in human hepatocytes (human hepatocytes): metabolized to yield the corresponding active metabolites
